From the NIST ThermoML archive (doi:10.1016/j.tca.2012.06.011)

Test: xn = mol fraction of the nth substance listed
Conditions: 101 kPa, Liquid; for viscosity: Capillary tube (Ostwald / Ubbelohde) method; for mass density: Vibrating tube method

C1C[C@@H]2[C@H]3CC[C@H](C3)[C@@H]2C1 [exo-tetrahydrodicyclopentadiene] + CCN(CC)CC
Conditions	mass density, 298.15 K [kg/m3]	mass density, 303.15 K [kg/m3]	mass density, 308.15 K [kg/m3]	mass density, 313.15 K [kg/m3]	mass density, 323.15 K [kg/m3]	viscosity, 298.15 K [mPa·s]	viscosity, 303.15 K [mPa·s]	viscosity, 308.15 K [mPa·s]	viscosity, 313.15 K [mPa·s]	viscosity, 323.15 K [mPa·s]
x2 = 0	931.29	927.38	923.46	919.54	911.7	2.8	2.549	2.332	2.124	1.811
x2 = 0.1347	906.47	902.17	898.15	894.12	885.86	2.034	1.871	1.714	1.57	1.36
x2 = 0.2521	883.66	879.54	875.44	871.32	863.09	1.535	1.421	1.324	1.217	1.063
x2 = 0.365	861.16	856.98	852.8	848.59	840.22	1.188	1.109	1.035	0.955	0.842
x2 = 0.4709	839.56	835.31	831.04	826.75	818.22	0.961	0.893	0.829	0.77	0.69
x2 = 0.5711	818.66	814.33	809.98	805.62	796.93	0.779	0.738	0.691	0.649	0.578
x2 = 0.6683	798.2	793.7	789.27	784.85	775.97	0.653	0.618	0.583	0.547	0.492
x2 = 0.7585	778.5	773.97	769.46	764.95	755.83	0.55	0.524	0.503	0.463	0.431
x2 = 0.8414	759.95	755.41	750.85	746.25	737.14	0.476	0.455	0.433	0.406	0.373
x2 = 0.9136	743.67	739.07	734.45	729.79	720.56	0.419	0.399	0.38	0.368	0.327
